From patent publication US12391737B2, “Soluble NPY2 receptor agonists” (Boehringer Ingelheim International GmbH, priority 2020, dated 2025)

How the values were obtained:
[1] = target: T1, human NPY5 receptor (hY5R) (Homo sapiens, UniProt Q15761); assay: HTRF cAMP Gi assay, hY5R
T1 sequence (Q15761 1-445): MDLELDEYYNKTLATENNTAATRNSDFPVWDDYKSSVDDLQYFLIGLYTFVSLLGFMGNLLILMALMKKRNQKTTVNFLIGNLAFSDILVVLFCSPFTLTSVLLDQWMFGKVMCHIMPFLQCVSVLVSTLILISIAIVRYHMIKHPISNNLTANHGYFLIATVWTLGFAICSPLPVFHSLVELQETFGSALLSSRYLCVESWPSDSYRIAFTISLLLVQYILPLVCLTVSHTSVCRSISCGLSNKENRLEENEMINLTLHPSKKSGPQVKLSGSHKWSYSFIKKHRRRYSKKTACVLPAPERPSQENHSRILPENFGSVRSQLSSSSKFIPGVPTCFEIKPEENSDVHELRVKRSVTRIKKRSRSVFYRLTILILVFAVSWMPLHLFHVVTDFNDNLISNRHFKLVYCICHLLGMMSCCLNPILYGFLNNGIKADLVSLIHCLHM

[2] = target: T2, Human Neuropeptide Y2 Receptor (Homo sapiens, UniProt P49146); assay: Activity (RLB binding) after incubation in solutions at different pH values
T2 construct: purchased CHEMICON HTS066M
T2 sequence (P49146 1-381): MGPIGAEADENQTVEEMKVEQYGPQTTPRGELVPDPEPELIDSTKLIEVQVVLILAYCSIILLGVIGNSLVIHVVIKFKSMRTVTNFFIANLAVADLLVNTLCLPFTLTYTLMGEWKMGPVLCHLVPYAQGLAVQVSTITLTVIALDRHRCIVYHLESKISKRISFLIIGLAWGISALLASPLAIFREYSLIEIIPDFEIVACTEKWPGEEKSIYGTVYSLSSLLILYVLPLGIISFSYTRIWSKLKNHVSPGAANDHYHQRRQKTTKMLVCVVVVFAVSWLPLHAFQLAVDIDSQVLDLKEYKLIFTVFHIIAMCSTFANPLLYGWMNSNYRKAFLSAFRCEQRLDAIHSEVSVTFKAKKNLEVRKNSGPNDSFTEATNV
Protocol: The filtration RLB assay was carried out in 96-well plates in a final volume of 100 μl per well. Freeze-dried test peptides were dissolved in 100% dimethyl sulfoxide (DMSO) to stock solutions of 1 mM and serial dilutions were performed in assay buffer (50 mM HEPES, 5 mM MgCl2, 1 mM CaCl2, pH 7.4) containing 0.2% ovalbumin. […] Next, 80 μL membranes (HTS066M, ChemiSCREEN™ Human Neuropeptide Y2 Receptor Membrane Preparation, CHEMICON) were added to each well to give a final protein concentration of 0.5 μg/well. The plates were sealed and incubated at room temperature for 2 hours in a plate shaker set at 400 rpm. The incubation was stopped by vacuum filtration onto 0.5% polyethylene amine (PE) presoaked GF/C filters using a 96-well FilterMate™ harvester (Perkin Elmer) followed by four washes with 300 μl/well ice-cold wash buffer (50 mM HEPES, 500 mM NaCl, pH7.4). Filter plates were then dried for 60 min at room temperature and the bottom of the plates was sealed with backing tape UniFilter-96. Finally, 50 μl/well scintillation counter cocktail (Microscint20, Packard) was added and the radioactivity was counted in the Packard TopCount NXT scintillation counter. IC50 values (the half maximal inhibitory concentration of the agonist) were calculated by nonlinear regression analysis of sigmoidal dose-response curves.
The peptide was (partially) dissolved by shaking the filter unit horizontally at approx. 400 rpm for 2 hours at room temperature. The sample was filtered to remove any insoluble particles.

Solubility determination = details: for Sol6: pH 6; for Sol7: pH 7
Outline: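 Shake-flask style: 10 mg/ml peptide (TFA salt), 0.1 M sodium diphosphate pH 6.4/7.0, 600 rpm, 2 h, RT; filter; dilute 1 mg/ml in 50% MeCN; RP-UPLC, 0–100% B over 2 min, 50 °C. Solubility = sample/control area ratio. Final pH recorded.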

[3] = target: T3, human NPY1 receptor (hY1R) (Homo sapiens, UniProt P25929); assay: HTRF cAMP Gi assay, hY1R; assay type: cell-based; details: CHO-K1 cells
T3 construct: expressed in transfected cells; host or cells: CHO-K1
T3 sequence (P25929 1-384): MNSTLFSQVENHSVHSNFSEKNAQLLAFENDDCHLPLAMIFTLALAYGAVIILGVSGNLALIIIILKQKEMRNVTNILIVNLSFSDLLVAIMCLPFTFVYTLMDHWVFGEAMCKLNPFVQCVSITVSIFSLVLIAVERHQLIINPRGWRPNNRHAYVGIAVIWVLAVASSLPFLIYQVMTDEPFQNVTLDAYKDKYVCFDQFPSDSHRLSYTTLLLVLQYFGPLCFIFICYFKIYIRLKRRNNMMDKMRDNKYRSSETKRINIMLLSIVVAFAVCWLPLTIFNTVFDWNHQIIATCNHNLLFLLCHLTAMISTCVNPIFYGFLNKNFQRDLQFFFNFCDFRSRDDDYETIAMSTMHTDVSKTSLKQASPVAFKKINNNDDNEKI

[4] = target: T4, human NPY4 receptor (hY4R) (Homo sapiens, UniProt P50391); assay: HTRF cAMP Gi assay, hY4R; assay type: cell-based; details: CHO-K1 cells
T4 construct: expressed in transfected cells; host or cells: CHO-K1

[5] = target: T2, Human Neuropeptide Y2 Receptor; assay: Radioligand binding competition assay (RLB)
Outline: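 Displacement of radioligand is measured after 2 h at room temperature with receptor membranes in Mg2+/Ca2+ HEPES buffer, pH 7.4. Filter-bound radioactivity is counted and IC50 obtained from curve fitting.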

[6] = target: T5, human NPY2 receptor (hY2R) (Homo sapiens, UniProt P49146); assay: HTRF cAMP Gi assay, hY2R
T5 sequence (P49146 1-381): T2 sequence (P49146 1-381)
Text: The Homogenous Time Resolved fluorescence (HTRF) technology optimized for Gi coupled receptors has thoroughly been described in Cisbio cAMP Gi kit manual. Briefly, the production of intracellular cAMP will generate a competition between unlabeled cAMP and exogenously added d2-cAMP for anti-cAMP antibodies conjugated to cryptate. CHO-K1 cells stably expressing the human NPY1, NPY2, NPY4 and NPY5 receptors were used with the cells brought to life from a frozen stock immediately before assay performance. 2000 cells per well were applied for all four NPY receptor subtype assays. A 384-well format was used applying a total volume of 20 μl using 5 μl cells, 2.5 μl peptide agonist, 2.5 μl forskolin and 5 μl of each of the fluorophores. […] Concentration-response evaluation of compounds was performed with 11 concentrations of agonist peptides (covering 3 decades). EC50 values were calculated by nonlinear regression using sigmoid concentration-response with variable slope.

[7] = apparent Ki of filtrate after incubation at pH7.1-7.2, assumed 10 mg/ml, read-out: RLB 7 (pH7.1-7.2)
[8] = apparent Ki of filtrate after incubation at pH8.1-8.2, assumed 10 mg/ml, read-out: RLB 8 (pH8.1-8.2)
[9] = Table 3, 125I-PYY(1-36) competition, read-out: Ki

T4 sequence (P50391 whole entry): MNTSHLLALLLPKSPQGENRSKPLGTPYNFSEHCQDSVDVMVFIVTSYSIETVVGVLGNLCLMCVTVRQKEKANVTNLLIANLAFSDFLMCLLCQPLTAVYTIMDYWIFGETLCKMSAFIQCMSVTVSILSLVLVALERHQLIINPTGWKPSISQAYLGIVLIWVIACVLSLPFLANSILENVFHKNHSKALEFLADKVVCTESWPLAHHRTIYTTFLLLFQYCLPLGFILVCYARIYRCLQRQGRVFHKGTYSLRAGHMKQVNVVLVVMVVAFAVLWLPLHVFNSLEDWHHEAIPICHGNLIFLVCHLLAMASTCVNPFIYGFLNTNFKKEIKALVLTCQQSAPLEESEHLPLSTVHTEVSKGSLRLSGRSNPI

EC50 [1] [nM] | Ki [2, 7] [nM] | Ki [2, 8] [nM] | Sol6 (Solubility determination) [mg/mL] | Sol7 (Solubility determination) [mg/mL] | EC50 [3] [nM] | EC50 [4] [nM] | Ki [5, 9] [nM] | Ki ([5]; Table 8, DMSO stock, read-out: hY2R RLB Ki (nM) DMSO) [nM] | Ki ([2]; apparent Ki of filtrate after incubation at pH6.1-6.2, assumed 10 mg/ml, read-out: RLB 6 (pH6.1-6.2)) [nM] | EC50 [6] [nM] | SMILES
> 5000 | 7.3 | 3.8 | 8.5 | 8.2 | > 5000 | > 5000 | – | – | – | – | CC[C@H](C)[C@H](NC(=O)[C@H](Cc1ccc(O)cc1)NC(=O)[C@H](Cc1ccc(O)cc1)NC(=O)[C@H](CCCNC(=N)N)NC(=O)[C@H](CCC(N)=O)NC(=O)[C@@H](NC(=O)[C@H](CCC(=O)O)NC(=O)[C@H](CCC(=O)O)NC(=O)[C@@H]1CCCN1C(=O)[C@H](CO)NC(=O)[C@H](C)NC(=O)[C@H](CC(=O)O)NC(=O)[C@H](C)NC(=O)[C@H](CCC(=O)O)NC(=O)[C@@H]1CCCN1C(=O)[C@H](CCCCNC(=O)CCCCCNC(=O)CC[C@H](NC(=O)CCCCCCCCCCCCCCCCC(=O)O)C(=O)O)NC(=O)[C@H](CCC(=O)O)NC(=O)[C@@H]1CCCN1C(=O)[C@H](C)NC(=O)CC(C)C)[C@@H](C)CC)C(=O)N[C@@H](C)C(=O)N[C@@H](CC(C)C)C(=O)N[C@@H](CCCNC(=N)N)C(=O)N[C@@H](Cc1c[nH]cn1)C(=O)N[C@@H](Cc1ccc(O)cc1)C(=O)N[C@@H](Cc1ccc(O)cc1)C(=O)N[C@@H](CC(N)=O)C(=O)N[C@@H](Cc1c[nH]c2ccccc12)C(=O)N[C@@H](CC(C)C)C(=O)N[C@H](C(=O)N[C@@H](CCCNC(=N)N)C(=O)N[C@@H](CCC(N)=O)C(=O)N[C@@H](CCCNC(=N)N)C(=O)N[C@@H](Cc1ccc(O)cc1)C(N)=O)[C@@H](C)O [Compound 40, N{alpha-4}-(3-methylbutanoyl)-N{epsilon-7}-(6-[(4S)-4-carboxy-4-(17-carboxyheptadecanamido)butanamido]hexanoyl)[4A,7K,9E,10A,17I,18Q,22I,23A,28Y,30W,31L]-hPYY(4-36)]
> 5000 | 4 | 5.7 | 9.4 | 9.3 | > 5000 | > 5000 | 1.48 | 8.7 | 3.9 | – | CC[C@H](C)[C@H](NC(=O)[C@H](CCC(=O)O)NC(=O)[C@H](CCC(=O)O)NC(=O)[C@@H]1CCCN1C(=O)[C@@H](NC(=O)[C@H](C)NC(=O)[C@H](CC(=O)O)NC(=O)[C@H](CCC(=O)O)NC(=O)[C@H](CCC(=O)O)NC(=O)[C@@H]1CCCN1C(=O)[C@H](CCCCNC(=O)CCCCCNC(=O)CC[C@H](NC(=O)CCCCCCCCCCCCCCCCC(=O)O)C(=O)O)NC(=O)[C@H](CCC(=O)O)NC(=O)[C@@H]1CCCN1C(=O)[C@H](C)NC(=O)CC(C)C)[C@@H](C)O)C(=O)N[C@@H](CCC(N)=O)C(=O)N[C@@H](CCCNC(=N)N)C(=O)N[C@@H](Cc1ccc(O)cc1)C(=O)N[C@@H](Cc1ccc(O)cc1)C(=O)N[C@H](C(=O)N[C@@H](CO)C(=O)N[C@@H](CC(C)C)C(=O)N[C@@H](CCCNC(=N)N)C(=O)N[C@@H](Cc1c[nH]cn1)C(=O)N[C@@H](Cc1ccc(O)cc1)C(=O)N[C@@H](Cc1ccc(O)cc1)C(=O)N[C@@H](CC(N)=O)C(=O)N[C@@H](Cc1c[nH]c2ccccc12)C(=O)N[C@@H](CC(C)C)C(=O)N[C@H](C(=O)N[C@@H](CCCNC(=N)N)C(=O)N[C@@H](CCC(N)=O)C(=O)N[C@@H](CCCNC(=N)N)C(=O)N[C@@H](Cc1ccc(O)cc1)C(N)=O)[C@@H](C)O)C(C)C [Compound 176, N{alpha-4}-(3-methylbutanoyl)-N{epsilon-7}-(6-[(4S)-4-carboxy-4-(17-carboxyheptadecanamido)butanamido]hexanoyl)-[4A,7K,9E,13T,17I,18Q,22V,28Y,30W,31L]-hPYY(4-36)]
> 5000 | – | 4.9 | 8.9 | 9.2 | > 5000 | > 5000 | 0.67 | – | – | 0.13 | CC(C)CC(=O)N[C@@H](C)C(=O)N1CCC[C@H]1C(=O)N[C@@H](CCC(=O)O)C(=O)N[C@@H](CCCCNC(=O)CCCCCNC(=O)CC[C@H](NC(=O)CCCCCCCCCCCCCCCCC(=O)O)C(=O)O)C(=O)N1CCC[C@H]1C(=O)N[C@@H](CCC(=O)O)C(=O)N[C@@H](C)C(=O)N[C@@H](CC(=O)O)C(=O)N[C@@H](C)C(=O)N[C@@H](CO)C(=O)N1CCC[C@H]1C(=O)N[C@@H](CCC(=O)O)C(=O)N[C@@H](CCC(=O)O)C(=O)N[C@@H](CC(C)C)C(=O)N[C@@H](CCC(N)=O)C(=O)N[C@@H](CCCNC(=N)N)C(=O)N[C@@H](Cc1ccc(O)cc1)C(=O)N[C@@H](Cc1ccc(O)cc1)C(=O)N[C@H](C(=O)N[C@@H](C)C(=O)N[C@@H](CC(C)C)C(=O)N[C@@H](CCCNC(=N)N)C(=O)N[C@@H](Cc1c[nH]cn1)C(=O)N[C@@H](Cc1ccc(O)cc1)C(=O)N[C@@H](Cc1ccc(O)cc1)C(=O)N[C@@H](CC(N)=O)C(=O)N[C@@H](Cc1c[nH]c2ccccc12)C(=O)N[C@@H](CC(C)C)C(=O)N[C@H](C(=O)N[C@@H](CCCNC(=N)N)C(=O)N[C@@H](CCC(N)=O)C(=O)N[C@@H](CCCNC(=N)N)C(=O)N[C@@H](Cc1ccc(O)cc1)C(N)=O)[C@@H](C)O)C(C)C [Compound 163, N{alpha-4}-(3-methylbutanoyl)-N{epsilon-7}-(6-[(4S)-4-carboxy-4-(17-carboxyheptadecanamido)butanamido]hexanoyl)-[4A,7K,9E,10A,18Q,22V,23A,28Y,30W,31L]-hPYY(4-36)]
